Measured values reported in the METLIN SMRT retention time set (Domingo-Almenara et al. 2019).

Assay: gradient 5% acetonitrile 3 min, to 50% in 2 min, to 85% in 15 min, held 3 min, 100 µL/min
Conditions: column: Zorbax Extend-C18 2.1 x 50 mm; eluents: water / acetonitrile, 0.1% formic acid
Summary of the method: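 Standards, all pure, were combined into mixtures of ~100 molecules and run at 100 μL/min on a Zorbax Extend-C18 column (2.1 × 50 mm, 1.8 μm) with water and acetonitrile, each containing 0.1% formic acid. A coupled quadrupole time-of-flight mass spectrometer operated in positive and negative ionization mode. Retention time values come from computationally picked adduct peaks, each inspected manually.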

Row | Structure (SMILES) | RP-LC retention time [s]
1 | Cc1ccc(C2Cn3cnc(C(=O)N4CCC(C(=O)NC(C)c5ccccc5)CC4)c3CO2)cc1 (stereo not given) | 756
2 | CN(c1cccc(Cl)c1)S(=O)(=O)c1cc2n(c1)CCCNC2=O | 726
3 | O=C(CSc1ccc(-c2ccccn2)nn1)Nc1ccc(F)c(F)c1 | 789
4 | COc1ccc(NC(=O)N2CCN(CC(=O)c3c(C)n(C)c4ccccc34)CC2)cc1 | 656
5 | COc1ccc(C(=O)NC2CCN(c3cc(-c4cccs4)[nH]n3)C2)cc1OC (stereo not given) | 638
6 | CCN1CCN(S(=O)(=O)c2c(C)nn(-c3ccc(-c4ccc(C)cc4)nn3)c2C)CC1 | 708
7 | O=C(CSc1ncnc2c1cnn2-c1ccccc1)Nc1ccc(OC(F)(F)F)cc1 | 1160
8 | COc1ccc(-c2csc(NC(=O)CCn3c(=O)oc4ccccc43)n2)cc1 | 940
9 | O=C(NCC(c1ccsc1)N1CCc2ccccc2C1)C(=O)Nc1ccon1 (stereo not given) | 572
10 | Fc1ccc(OCc2nc(C3CCCN3)no2)cc1 (stereo not given) | 564
11 | O=c1c(=O)n(-c2ccccc2)ccn1Cc1nc(-c2cccc(Br)c2)no1 | 885
12 | Cc1nc(-c2ccc(C)c(S(=O)(=O)NCCN(C)C)c2)cs1 | 612
13 | COc1ccc(-c2ccc(=O)n(CCCC(=O)Nc3ccccc3C(N)=O)n2)cc1OC | 619
14 | COc1ccc(N2C=C(C(=O)N3CCCC3)S(=O)(=O)c3ccccc32)cc1OC | 726
15 | COc1cc(CCc2cc(NC(=O)c3ccc(N4C[C@@H](C)N[C@@H](C)C4)cc3)n[nH]2)cc(OC)c1 | 687
16 | CC(=O)N1CCCc2cc(S(=O)(=O)CCC(=O)Nc3ccc(Br)cc3C)ccc21 | 829
17 | CCc1cccc(NC(=O)Cc2nc(C)c(C(=O)NCC(C)C)s2)c1 | 886
18 | O=C(Nc1cnc(N2CCCC2)nc1)c1cccs1 | 667
19 | Cc1cc(C(=O)NC(C)C)c2cc(Cl)ccc2n1 | 718
20 | COCC(=O)Nc1cccn2nc(C(C)C)nc12 | 717
21 | CCOc1ccc(NC(=O)N2CCCC2c2cc(C)on2)cc1 (stereo not given) | 854

Row | Structure (SMILES) | RP-LC retention time [s]
22 | COc1cccc2cc(C(=O)Nc3nc(-c4ccc(Cl)cc4)cs3)c(=O)oc12 | 1290
23 | Cc1ccc2[nH]cc(CCNC(=O)NC3CCCCC3)c2c1 | 874
24 | CCc1ccc(C(=O)N2CCC(c3nc4ccncc4n3C(C)C)C2)cc1 (stereo not given) | 572
25 | CCc1nncn1C1CCN(C(=O)c2cc(F)ccc2Cl)CC1 | 628
26 | Nc1ccc2c(c1)CN1C(=O)c3ccccc3C1=N2 | 639
27 | C=CCN(CC=C)S(=O)(=O)c1ccc(C(=O)N2CCCc3ccccc32)cc1 | 985
28 | O=C1COc2ccc(Cl)cc2N1Cc1nc(-c2ccc(N3CCOCC3)cc2)no1 | 1000
29 | CCOC(=O)c1ccc(N2C=C(C#N)S(=O)(=O)c3ccccc32)cc1 | 917
30 | COc1ccc(C(C)NC(=O)c2cc(-c3ccccc3)cn2C)cc1OC (stereo not given) | 963
31 | Cc1cc(N2CCN(C(=O)C(C)Oc3cccc(Cl)c3)CC2)nc2nncn12 (stereo not given) | 644
32 | CCCCc1nn2c(=O)cc(CN3CCN(c4ncccn4)CC3)nc2s1 | 604
33 | O=C(NCc1cccc(Cl)c1)c1c(O)c2cccnc2n(-c2cccc(F)c2)c1=O | 1240
34 | CCN(Cc1ccccc1)S(=O)(=O)c1c(C)c(-c2nnc(C3CCC3)o2)n(C)c1C | 1130
35 | CCCOc1cccc(C(=O)N(Cc2ccc(Br)o2)C2CCS(=O)(=O)C2)c1 (stereo not given) | 1010
36 | COc1cccc(-n2c(=O)c(C(=O)Nc3ccc(F)c(F)c3)c(O)c3cccnc32)c1 | 1250
37 | COc1cc(NC(=O)c2ccc(-c3ccc(Cl)cc3)o2)cc(OC)c1 | 1170
38 | CC(NC(=O)C1CCN(c2cnn(Cc3ccccc3)c(=O)c2)CC1)c1cccs1 (stereo not given) | 789
39 | O=C(NCCn1cc(SCC(=O)N2CCOCC2)c2ccccc21)c1ccc(F)cc1 | 733
40 | CC1=C(c2ccc(C(C)C)cc2)S(=O)(=O)N=C1N1CCC(C(=O)NCCc2ccco2)CC1 | 947
41 | COCCc1noc(CC2CCOC3(CCN(C(=O)NC(C)(C)C)CC3)C2)n1 (stereo not given) | 700
42 | CCCn1cnc2cc(CNC(=O)c3ccc(OC)c(OC)c3)ccc21 | 606

Row | Structure (SMILES) | RP-LC retention time [s]
43 | C[C@](O)(COc1ccc(C#N)cc1)C(=O)Nc1ccc(C#N)c(C(F)(F)F)c1 | 972
44 | COc1ccc(-c2nnc(SCc3cc(=O)n4c(C)csc4n3)o2)cc1 | 831
45 | CCc1nncn1C1CCN(S(=O)(=O)c2cc(C)ccc2C)CC1 | 752
46 | O=C(C1=CN(c2cc(F)cc(F)c2)c2cc(F)ccc2S1(=O)=O)N1CCCC1 | 829
47 | Cc1cccc(Sc2nccnc2N2CCC(C(=O)NCCN3CCOCC3)CC2)c1 | 668
48 | COc1ccc(C(=O)N2CCc3nc(CNC(=O)C4CCC4)n(C)c3C2)cc1 | 516
49 | Cc1cccc(NC(=O)CC(=O)Nc2ccc3nc4n(c(=O)c3c2)CCCCC4)n1 | 624
50 | O=C(Nc1cnc(-c2cccc(Cl)c2)nc1)c1ccsc1 | 1030
51 | Cc1ccc(CNC(=O)C2CCN(S(=O)(=O)c3c(C)[nH]c(C)c3C(=O)N3CCCC3)CC2)cc1 | 720
52 | Cc1oc(C2CCC2)nc1C(=O)NCc1ccc2c(c1)OCO2 | 978
53 | O=C(Nc1ccc2c(c1)OCCO2)N1CCc2nc(-c3ccccc3)ncc2C1 | 848
54 | Cc1cccc(Nc2c(-c3ccc(N4CCOCC4)cc3)nc3cnccn23)c1C | 867
55 | CN1CCN(c2ncc3c(=O)n(CC4CCCO4)ccc3n2)CC1 (stereo not given) | 567
56 | CC(C)CC(=O)N1CCN(c2ccc(=O)n(-c3cccc(Cl)c3)n2)CC1 | 829
57 | O=C(O)CC1CCCN(c2cn[nH]c(=O)c2)C1 (stereo not given) | 570
58 | O=C(c1ccc(F)c(Cl)c1)N1CCN(c2cc(-c3cccs3)[nH]n2)CC1 | 800
59 | CCc1cccc(NC(=O)Cn2nc3cc(C)nc(Nc4ccc(F)c(C)c4)n3c2=O)c1 | 1190
60 | O=C(NCCCN1CCCCC1)C1=C2CCCN2c2ccc(F)cc2S1(=O)=O | 606
61 | CCCN1C(=O)COc2ccc(-c3noc(-c4ccc(C#N)cc4)n3)cc21 | 1130
62 | CC1Oc2ccc(-c3csc(NC(=O)C4CC4)n3)cc2N(C)C1=O (stereo not given) | 787

Second part, the compound after the results:

Row | RP-LC retention time [s] | Structure (SMILES)
63 | 567 | O=C(C1CCCN(c2cnc3nccnc3c2)C1)N1CCN(C2CCCCC2)CC1 (stereo not given)
64 | 791 | CCc1cccc(NC(=O)Cn2c(N3CCOCC3)nc(CC)cc2=O)c1
65 | 898 | Cc1cc(=O)n(CCOc2ccc(F)cc2)c(N2CCSCC2)n1
66 | 738 | COc1ccc(OC)c(NC(=O)Cc2csc3nc(-c4ccc(OC)c(OC)c4)cn23)c1
67 | 731 | COC(=O)CNC(=O)C1CN(C(=O)c2ccccc2)CC12CCCCC2 (stereo not given)
68 | 725 | COc1ccc(CCNC(=O)CN2C(=O)c3cccc4cccc(c34)C2=O)cc1OC
69 | 1330 | O=C(NCCC1=CCCCC1)C1CCN(c2ncccc2-c2nc(-c3ccc(Cl)cc3)no2)CC1
70 | 656 | Cc1ccc(CNC(=O)c2cc3sc(C)c(CN4CCOCC4)c3[nH]2)o1
71 | 608 | CC(C)c1nnc(-c2ccc(S(=O)(=O)N3CCN(C(C)C)CC3)o2)o1
72 | 563 | O=C(c1cnn(-c2ccc([N+](=O)[O-])cc2)c1C1CCNCC1)N1CCN(c2ccccn2)CC1
73 | 917 | CCOc1ccccc1NC(=O)Cn1nc(C(=O)N2CCCC2)c2ccccc21
74 | 690 | CCOC(=O)C1CCCN(CC(=O)Nc2nc(-c3ccccc3)cs2)C1 (stereo not given)
75 | 753 | CCOCCCNC(=O)CCc1nnc2c3cc(-c4ccc(C)c(C)c4)nn3ccn12
76 | 974 | C[C@@H](C(=O)O)c1ccc(-c2ccccc2)c(F)c1
77 | 650 | Cc1cc(C)nc(N2CCC(NC(=O)c3cccc4nccnc34)CC2)n1
78 | 757 | Cc1nc(CC(=O)NCc2ccc(F)cc2F)sc1C(=O)NCC(C)C
79 | 1080 | CN1C(=O)C(C)(C)N(Cc2ccccc2)c2ccccc21
80 | 634 | CC(C)CN1CCn2cc(C(=O)NCC3CCCCC3)nc2C1
81 | 620 | CC1=CC(=C2C=CC(=O)C=C2)C=C(C)N1C
82 | 984 | Cc1cccc(NC(=O)Nc2ccc3c(c2)CCN3S(=O)(=O)c2ccccc2)c1C
83 | 1170 | O=S(=O)(c1ccc(Cl)s1)N1CCc2nc(-c3ccccc3)ncc2C1
84 | 816 | Cc1cnc2cc(Cl)ccc2c1SCC(=O)O
85 | 634 | CN1CCN(C(=O)Nc2ccc([N+](=O)[O-])cc2)CC1
86 | 794 | Cn1c(=O)c2c(nc(N3CCCCC3)n2C)n(C)c1=O
87 | 705 | Cc1cc(C(=O)NCCn2ncc3c(=O)n(Cc4ccc(F)cc4)cnc32)c(C)o1
88 | 548 | COc1cccc(OC)c1CN1CC(n2cnnc2-c2cccnc2)C1
89 | 878 | CC(C)N1C(=O)c2cccnc2Sc2cc(NC(=O)c3ccc4c(c3)OCO4)ccc21
90 | 865 | O=C(CSc1nc(-c2cccc([N+](=O)[O-])c2)cs1)NCc1ccc2c(c1)OCO2
